Experimental data published in ChEMBL document CHEMBL1201862, “PubChem BioAssay data set” (2004).
Activity calls are given as the source filed them. Cut-off read from the data, not from the text of the source: actives have a measured IC50 and inactives only a lower limit.

Biological target: Envelope glycoprotein gp160 (Human immunodeficiency virus 1, UniProt Q6QLK5)
Assay: cell-free HIV fusion peptide-binding blockers – biochemical, uHTS, fluorescence dequenching, […] (AID 1986)

Sequence of Envelope glycoprotein gp160 (Q6QLK5 whole entry, the tested form may be a part): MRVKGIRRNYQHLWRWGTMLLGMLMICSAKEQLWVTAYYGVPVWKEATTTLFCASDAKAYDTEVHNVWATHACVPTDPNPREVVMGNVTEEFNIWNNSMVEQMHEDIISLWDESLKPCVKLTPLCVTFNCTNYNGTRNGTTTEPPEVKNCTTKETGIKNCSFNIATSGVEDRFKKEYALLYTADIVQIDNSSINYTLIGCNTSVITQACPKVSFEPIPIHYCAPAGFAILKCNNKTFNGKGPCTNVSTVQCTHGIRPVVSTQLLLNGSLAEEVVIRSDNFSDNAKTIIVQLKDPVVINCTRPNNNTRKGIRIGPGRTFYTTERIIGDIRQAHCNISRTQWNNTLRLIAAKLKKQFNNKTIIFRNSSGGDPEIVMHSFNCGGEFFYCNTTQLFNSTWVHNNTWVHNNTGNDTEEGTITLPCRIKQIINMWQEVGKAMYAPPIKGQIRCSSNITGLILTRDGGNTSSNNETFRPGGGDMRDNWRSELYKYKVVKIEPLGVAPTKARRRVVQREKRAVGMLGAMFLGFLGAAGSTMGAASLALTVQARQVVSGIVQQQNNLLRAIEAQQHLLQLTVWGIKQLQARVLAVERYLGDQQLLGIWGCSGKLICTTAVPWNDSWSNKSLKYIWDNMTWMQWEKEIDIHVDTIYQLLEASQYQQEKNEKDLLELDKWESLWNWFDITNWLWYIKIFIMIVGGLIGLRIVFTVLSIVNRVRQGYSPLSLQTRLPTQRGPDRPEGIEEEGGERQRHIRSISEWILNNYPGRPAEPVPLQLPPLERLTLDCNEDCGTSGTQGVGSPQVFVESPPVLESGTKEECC

COc1ccccc1OCCOc1ccc(/C=C2\C(=N)N3N=C(S(C)(=O)=O)SC3=NC2=O)cc1
IC50: 33.8 µM (active)

O=C(COc1ccc2ccccc2c1)Nc1cccc(C(=O)Nc2ccccc2C(=O)O)c1
IC50: 14.3 µM (active)

O=C(O)CCN1C(=O)/C(=C\c2cccc(OCC(=O)Nc3ccc(Cl)cc3)c2)SC1=S
IC50: 13.2 µM (active)

O=C(O)c1ccc(Nc2nc(-c3cc4ccccc4oc3=O)cs2)cc1O
IC50: 11.5 µM (active)

CCOC(=O)c1sc(N2C(=O)C(O)=C(C(=O)c3ccco3)C2c2ccc([N+](=O)[O-])cc2)nc1C (stereo not given)
IC50: 17.6 µM (active)
